Key:
Format in all cases: biochemical
[1] = target: T1, recombinant human baculovirus-expressed VEGFR1 cytoplasmic domain (Homo sapiens, UniProt P17948); test: VEGFR1 kinase inhibition assay (ELISA-based, time-resolved fluorescence); settings: 1 uM compound, 30 μM ATP; for inhibition at 1 µM: read-out: VEGFR-1 kinase % inhibition @ 1 uM
T1 construct: recombinant human baculovirus-expressed VEGFR1 cytoplasmic domain; host or cells: baculovirus expression system
T1 sequence (P17948 781-1338 limits assumed): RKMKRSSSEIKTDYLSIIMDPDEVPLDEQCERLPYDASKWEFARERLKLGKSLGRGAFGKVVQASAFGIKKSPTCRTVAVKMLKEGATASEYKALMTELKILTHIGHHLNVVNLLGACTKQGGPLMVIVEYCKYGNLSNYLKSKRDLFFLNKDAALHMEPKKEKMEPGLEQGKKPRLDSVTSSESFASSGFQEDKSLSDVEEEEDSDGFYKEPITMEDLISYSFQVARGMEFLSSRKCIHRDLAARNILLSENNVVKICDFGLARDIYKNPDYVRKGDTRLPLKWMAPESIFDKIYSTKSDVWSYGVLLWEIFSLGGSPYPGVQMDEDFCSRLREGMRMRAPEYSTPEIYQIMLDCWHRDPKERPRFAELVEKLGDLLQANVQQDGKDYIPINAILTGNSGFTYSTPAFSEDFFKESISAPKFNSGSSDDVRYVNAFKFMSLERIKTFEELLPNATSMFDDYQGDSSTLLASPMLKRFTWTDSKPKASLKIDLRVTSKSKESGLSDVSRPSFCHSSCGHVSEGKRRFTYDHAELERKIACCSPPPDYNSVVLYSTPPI
Experimental: Inhibition of Vascular Endothelial Growth Factor Receptor-1 Kinase Activity
The VEGFR1 kinase activity assay utilizes an ELISA-based format in a 96-well FluoroNUNC Maxisorp plate with a time-resolved fluorescence readout. The plate was coated with 100 μl/well of substrate solution (recombinant human PLC-γ/GST) at a concentration of 40 μg/ml in Tris buffered saline (TBS). The VEGFR1 activity was assayed in 100-μl assay micture containing 50 mM HEPES (pH 7.4), 30 μM ATP, 10 mM MnCl2, 0.1% BSA, 2% DMSO, and 300 ng/ml prephosphorylated recombinant human baculovirus-expressed VEGFR1 cytoplasmic domain. Compounds were screened for inhibition of the VEGFR1 kinase activity at a concentration of 1 μM. The kinase reaction was allowed to proceed at 37° C. for 15 minutes. The detection antibody, europium-labeled anti-phosphotyrosine antibody (Wallac #CR04-100), was added at 1:5000 dilution in block buffer (3% BSA in TBST). After a 1-hour incubation at 37° C., 100 μl of enhancement solution (Wallac #1244-105) was added and the plate was gently agitated. After 5 min, the fluorescence of the resulting solution was measured using the BMG Fluostar (Model # 403).

baculoviral GST-MLK2KDLZ = target: T2, baculoviral GST-MLK2KDLZ (Homo sapiens, UniProt Q02779); test: Mixed Lineage Kinase-2 inhibition assay (Millipore Multiscreen plate, 32P); settings: 1 uM compound, 100 μM ATP; for inhibition at 1 µM: read-out: MLK-2 Kinase % inhibition @ 1 uM
T2 construct: 3 μg/ml of baculoviral GST-MLK2KDLZ; GST (N); host or cells: baculovirus expression system
T2 sequence (Q02779 98-440 limits assumed): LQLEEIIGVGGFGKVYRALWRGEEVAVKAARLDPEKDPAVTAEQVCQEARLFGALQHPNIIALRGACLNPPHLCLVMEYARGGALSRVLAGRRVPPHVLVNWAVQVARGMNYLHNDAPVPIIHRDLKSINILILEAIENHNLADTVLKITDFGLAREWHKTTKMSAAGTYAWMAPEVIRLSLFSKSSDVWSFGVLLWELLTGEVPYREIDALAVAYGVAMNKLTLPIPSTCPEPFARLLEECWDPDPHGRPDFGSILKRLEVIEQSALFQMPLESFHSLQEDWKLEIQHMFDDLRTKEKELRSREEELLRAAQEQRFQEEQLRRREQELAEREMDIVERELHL
Experimental: Inhibition of Mixed Lineage Kinase-2 Activity
Assays were performed using the Millipore Multiscreen plate format as described for MLK1. Each 50-μl assay mixture contained 20 mM Hepes, pH 7, 1 mM EGTA, 10 mM MgCl2, 1 mM DTT, 25 mM β-glycerophosphate, 100 μM ATP, 0.25 μCi [γ-^32P]ATP, 0.1% BSA, 500 μg/ml myelin basic protein (UBI #13-104), 2% DMSO, various concentrations of test compound, and 3 μg/ml of baculoviral GST-MLK2KDLZ. Samples were incubated for 15 min. at 37° C. The reaction was stopped by adding ice cold 50% TCA and the proteins were allowed to precipitate for 30 min at 4° C. The plates were then washed with ice cold 25% TCA Supermix scintillation cocktail was added, and the plates were allowed to equilibrate for 1-2 hours prior to counting.

[2] = target: T3, recombinant human baculoviral VEGFR2 cyctoplasmic domain (Homo sapiens, UniProt P35968); test: VEGFR2 kinase inhibition assay (ELISA-based, time-resolved fluorescence); settings: 1 uM compound, 30 μM ATP; for inhibition at 1 µM: read-out: VEGFR-2 kinase % inhibition @ 1 uM
T3 construct: recombinant human baculoviral VEGFR2 cyctoplasmic domain; host or cells: baculovirus expression system
T3 sequence (P35968 786-1356 limits assumed): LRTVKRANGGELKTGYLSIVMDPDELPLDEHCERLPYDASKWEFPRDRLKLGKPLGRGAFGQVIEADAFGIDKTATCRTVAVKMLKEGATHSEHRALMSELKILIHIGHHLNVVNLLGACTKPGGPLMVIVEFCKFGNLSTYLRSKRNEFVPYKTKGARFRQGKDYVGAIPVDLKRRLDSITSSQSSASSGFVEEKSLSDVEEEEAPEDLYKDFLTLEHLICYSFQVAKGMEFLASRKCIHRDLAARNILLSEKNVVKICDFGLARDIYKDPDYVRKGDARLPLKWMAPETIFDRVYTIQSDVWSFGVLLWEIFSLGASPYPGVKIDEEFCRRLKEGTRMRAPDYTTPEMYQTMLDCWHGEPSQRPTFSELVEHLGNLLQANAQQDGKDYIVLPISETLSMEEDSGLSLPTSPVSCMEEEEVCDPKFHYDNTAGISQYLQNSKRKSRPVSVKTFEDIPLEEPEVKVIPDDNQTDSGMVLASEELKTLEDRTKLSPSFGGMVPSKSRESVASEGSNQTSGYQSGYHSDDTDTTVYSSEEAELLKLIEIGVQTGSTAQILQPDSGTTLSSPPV
Experimental: Inhibition of Vascular Endothelial Growth Factor Receptor-2 Kinase Activity
Assay were performed as described for trkA kinase below. The 96-well microtiter plate (FluoroNUNC Maxisorp) was coated with 40 μg/ml recombinant human phospholipase C-γ1/glutathione S-transferase fusion protein. Inhibition studies were performed in 100 μl assay mixtures containing 50 mM HEPES, pH 7.4, 30 μM ATP, 10 mM MnCl2, 0.1% BSA, 2% DMSO, and 1 μM of test compound. The reaction was initiated by adding prephosphorylated recombinant human baculoviral VEGFR2 cyctoplasmic domain. The reaction was allowed to proceed for 15 minutes at 37° C. The detection antibody, eurpium-labeled anti-phosphotyrosine antibody (Wallac #CR04-100), was added at 1:5000 dilution in block buffer (3% BSA in TBST).

Row | SMILES | VEGFR-1 kinase % inhibition @ 1 uM [1] | MLK-2 Kinase % inhibition @ 1 uM (baculoviral GST-MLK2KDLZ) | VEGFR-2 kinase % inhibition @ 1 uM [2] | inhibition at 1 µM [1] | inhibition at 1 µM (baculoviral GST-MLK2KDLZ) | inhibition at 1 µM [2]
1 | Cc1cc(C)c(C=C2C(=O)NN=C2c2cccs2)[nH]1 [Compound 61] | 44% | −4% | 75% | – | – | –
2 | Cc1nc(C)c(C2=NNC(=O)C2=Cc2c[nH]c3ccccc23)s1 [Compound 13] | 39% | −17% | 25% | – | – | –
3 | O=C1NN=C(c2cccs2)C1=Cc1c[nH]c2ccccc12 [Compound 38, 4-(indol-3-ylmethylene)-3-(2-thienyl)-2-pyrazolin-5-one] | – | – | – | 28% | 2% | 42%
4 | Cc1cccc2c(C=C3C(=O)NN=C3c3ccoc3)c[nH]c12 [Compound 22] | 23% | −13% | 41% | – | – | –
5 | O=C1NN=C(c2nccs2)C1=Cc1cn(Cc2ccccc2)c2ccccc12 [Compound 70] | 1% | 5% | 51% | – | – | –
6 | O=C1NN=C(c2ccoc2)C1=Cc1c[nH]c2ccc(F)cc12 [Compound 19] | 30% | −5% | 44% | – | – | –
7 | O=C1NN=C(c2ccoc2)C1=Cc1c[nH]c2ccccc12 [Compound 9] | 51% | 15% | 49% | – | – | –
8 | Cc1cc(C)c(C=C2C(=O)NN=C2c2sc(C)nc2C)[nH]1 [Compound 14] | 8% | −18% | 13% | – | – | –
9 | Cc1cc(C)c(C=C2C(=O)NN=C2c2cc(-c3ccc(Cl)cc3)oc2C)[nH]1 [Compound 41] | 5% | −15% | 13% | – | – | –
10 | O=C1NN=C(c2cc3ccccc3o2)C1=Cc1c[nH]c2ccccc12 [Compound 58] | 51% | 4% | 47% | – | – | –
11 | CN(C)c1ccc(C=C2C(=O)NN=C2c2ccco2)cc1 [Compound 52] | 0% | 5% | 19% | – | – | –
12 | O=C1NN=C(c2ccco2)C1=Cc1c[nH]c2ccc(OCc3ccccc3)cc12 [Compound 43] | −2% | 2% | 25% | – | – | –
13 | Cn1cc(C=C2C(=O)NN=C2c2cccs2)c2ccccc21 [Compound 63] | 40% | 1% | 75% | – | – | –
14 | N#CCCn1cc(C=C2C(=O)NN=C2c2nccs2)c2ccccc21 [Compound 64] | 26% | 9% | 43% | – | – | –
15 | Cc1cccc2c(C=C3C(=O)NN=C3c3ccco3)c[nH]c12 [Compound 47] | 40% | −2% | 64% | – | – | –
16 | Cn1cccc1C1=NNC(=O)C1=Cc1c[nH]c2ccc(F)cc12 [Compound 56] | 5% | −14% | 8% | – | – | –

Row | SMILES | VEGFR-1 kinase % inhibition @ 1 uM [1] | MLK-2 Kinase % inhibition @ 1 uM (baculoviral GST-MLK2KDLZ) | VEGFR-2 kinase % inhibition @ 1 uM [2] | inhibition at 1 µM [1] | inhibition at 1 µM (baculoviral GST-MLK2KDLZ) | inhibition at 1 µM [2]
17 | Cc1cc(C)c(C=C2C(=O)NN=C2c2ccco2)[nH]1 [Compound 28, 4-[(3,5-dimethylpyrrol-2-yl)methylene]-3-(2-furyl)-2-pyrazolin-5-one] | – | – | – | 36% | 10% | 80%
18 | Cc1cc(C)c(C=C2C(=O)NN=C2c2csc3ccccc23)[nH]1 [Compound 39] | 4% | −7% | 13% | – | – | –
19 | Cc1cc(C)c(C=C2C(=O)NN=C2c2ccncc2)[nH]1 [Compound 3] | 22% | −1% | 39% | – | – | –
20 | O=C1NN=C(c2cccs2)C1=Cc1c[nH]c2ccccc12 [Compound 62] | 38% | −21% | 52% | – | – | –
21 | CCOC(=O)CCc1c(C(=O)OCC)[nH]c(C=C2C(=O)NN=C2c2ccoc2)c1CC(=O)OCC [Compound 7] | 13% | −12% | −3% | – | – | –
22 | Cc1c(I)[nH]c(C=C2C(=O)NN=C2c2ccoc2)c1I [Compound 6] | 14% | 6% | 9% | – | – | –
23 | O=C1NN=C(c2ccco2)C1=Cc1c[nH]c2ccc(F)cc12 [Compound 48] | 54% | 3% | 58% | – | – | –
24 | Cn1cc(C=C2C(=O)NN=C2c2ccco2)c2ccccc21 [Compound 45] | 46% | −22% | 72% | – | – | –
25 | Cc1cc(C)c(C=C2C(=O)NN=C2c2cccn2C)[nH]1 [Compound 55] | 20% | 2% | 38% | – | – | –
26 | O=C1NN=C(c2ccoc2)C1=Cc1c[nH]c2cccc(OCc3ccccc3)c12 [Compound 18] | 9% | −2% | 12% | – | – | –
27 | O=C1NN=C(c2ccoc2)C1=Cc1cn(Cc2ccccc2)c2ccccc12 [Compound 68] | 11% | 16% | 26% | – | – | –
28 | Cc1cc(C)c(C=C2C(=O)NN=C2c2ccn(C)c2)[nH]1 [Compound 23] | 2% | −6% | 7% | – | – | –
29 | CCc1c(C=C2C(=O)NN=C2c2ccoc2)[nH]c(C(=O)OCc2ccccc2)c1C [Compound 5] | 10% | 9% | −5% | – | – | –
30 | N#CCCn1cc(C=C2C(=O)NN=C2c2ccoc2)c2ccccc21 [Compound 65] | 22% | −3% | 43% | – | – | –
31 | O=C1NN=C(c2ccoc2)C1=Cc1ncc[nH]1 [Compound 15] | 12% | −12% | 11% | – | – | –
32 | Cc1cc(C)c(C=C2C(=O)NN=C2c2ccsc2)[nH]1 [Compound 37, 4-[(3,5-dimethylpyrrol-2-yl)methylene]-3-(3-thienyl)-2-pyrazolin-5-one] | – | – | – | 14% | 12% | 62%

— patent publication US6831075B2, “Heterocyclic substituted pyrazolones” (Cephalon, Inc., priority 1999, dated 2004)
